Laboratory results from patent US11707440B2 (priority 2017, dated 2023).

Columns and labels:
[1] = tested on: subjects with MDD at imminent risk for suicide; assay: Beck Hopelessness Scale (BHS), […]2001; format: in vivo, human; details: for BHS total score change, Diff. of LS Means (SE) minus placebo: ANCOVA LOCF
Excerpt: The BHS is a self-reported measure to assess one's level of negative expectations or pessimism regarding the future. It consists of 20 true-false items that examine the respondent's attitude over the past week by either endorsing a pessimistic statement or denying an optimistic statement. For every statement, each response is assigned a score of 0 or 1. The total BHS score is a sum of item responses and ranges from 0 to 20, with a higher score representing a higher level of hopelessness.

subjects with TRD [2] = tested on: subjects with TRD; parameters: species or system human; details: in vivo
Excerpt: Subjects with and without hypertension experienced similar magnitude of mean increases of SBP and DBP.
The maximum mean increases (across all dosing days within the respective phase) in diastolic BP were 5.6 and 5.2 in the IND and OP/MA phases, respectively.

[3] = Pharmacokinetics of intranasal esketamine in healthy subjects (Example 9); details: healthy subjects; 28, 56 and 84 mg
Experimental: Pharmacokinetic blood samples for measurement of esketamine and noresketamine concentrations in plasma were collected from predose until up to 24 hours after each intranasal esketamine regimen on Day 1 of each period.
Blood samples (4 mL each) for determination of esketamine and noresketamine plasma concentrations were collected into the appropriate collection tube (e.g., Vacutainer®) at timepoints 0.00, 0.12, 0.20, 0.37, 0.53, 0.67, 0.83, 1.00, 1.25, 1.50, 2.00, 3.00, 4.00, 6.00, 9.00, 12.00, 18.00, and 24.00 h. The total amount of blood to be drawn for clinical laboratory tests and PK evaluations is approximately 327 mL.
Plasma samples were analyzed for esketamine and noresketamine concentrations using the validated, specific and sensitive liquid chromatography coupled to tandem mass spectrometry (LC-MS/MS) achiral method of Example 8.
Serial PK blood samples (4 mL each) were collected for a 24-hour period from each subject (Periods 1, 2, and 3). […] Statistical Methods 1.6.4.1. Sample Size
The following key parameters of esketamine and noresketamine in plasma were calculated using noncompartmental methods and actual sampling times: Cmax, tmax, AUClast, AUC∞, t1/2,λ, and λz.

[4] = Excerpt: This example provides an LC-MS/MS method for the determination of ketamine and norketamine in sodium heparin human plasma using ketamine-d4 and norketamine-d4 as the respective internal standards (IS).
subjects with TRD [5] = details: human, in vivo, other: intranasal
Experimental: The Clinician Administered Dissociative States Scale (CADSS) was measured prior to the start of each dose, at 40 minutes, and 1.5 hours postdose.

[6] = tested on: subjects with MDD at imminent risk for suicide; assay: MADRS suicide item, […]2001; format: in vivo, human; details: 84 mg, ITT Analysis Set
Excerpt: • a. Changes from baseline to Day 2 and Day 25 for the MADRS total score • b. Changes from baseline to Day 1 4-hours postdose, Day 2 and Day 25 for the MADRS Suicide Item • c. Changes from baseline to Day 1 4-hours postdose, Day 2, and Day 25 for the clinical global judgment of suicide risk from the Suicide Ideation and Behavior Assessment Tool (SIBAT) • d. Sustained response (Onset of Clinical Response) defined as at least 50% reduction from baseline in MADRS total score with onset on Day 1 that is maintained through the end of the double-blind phase (Day 25) • e. Changes from baseline to Day 1 4-hours postdose, Day 2, and Day 25 for the Beck Scale for Suicidal Ideation (BSS) • f. Changes from baseline to Day 1 4-hours postdose and Day 25 for the Beck Hopelessness Scale
Results of the change from baseline over time for the suicide item from the MADRS assessment can be found in Attachment 1.

[7] = tested on: patients with treatment-resistant depression (TRD); assay: Blood pressure and heart rate, Example 7; format: in vivo, human
Experimental: Adverse events were monitored throughout the study. Other safety assessments (i.e., laboratory tests, vital signs, physical examination) were performed at pre-specified time points. Vital signs, the Clinician Administered Dissociative States Scale (CADSS; Bremner, “Measurement of dissociative states with the clinician-administered dissociative states scale (CADSS)”, J. Traumatic Stress, 1998, 11(1):125-136), and the 4-item positive symptom subscale from the Brief Psychiatric Rating Scale (BPRS; Overall, “The Brief Psychiatric Rating Scale. Psychological Reports”, 1962, 10:799-812) were assessed pre-dose, at 40 minutes, and 2 hours post-dose.

[8] = Pharmacokinetics of esketamine nasal spray, 14 Phase 1 studies (Example 10); details: human, plasma, inhaled or intranasal
Experimental: The data herein was assembled from 14 Phase 1 studies; each Phase 1 study was performed similarly to the study outlined in Example 9 in which the PK of esketamine was assessed.

[9] = Day 1(DB): 4H, LOCF, ITT analysis set
[10] = End Point(DB), LOCF, ITT analysis set
[11] = in most cases at 10 or 40 minutes post-dose

CN[C@]1(c2ccccc2Cl)CCCCC1=O [Esketamine 84 mg]
BHS total score, Median (Range) ([1]; Baseline(DB), predose Day 1, ITT analysis set): 17.0 (9; 20) | BHS total score change, Diff. of LS Means (SE) minus placebo ([1]; Day 1(DB): 4H): −1.5 (1.47) | BHS total score change from baseline, Mean (SD) [1, 9]: −4.1 (5.63) | BHS total score change from baseline, Median (Range) [1, 9]: −2.0 (−16; 2) | BHS total score, Median (Range) [1, 9]: 14.0 (0; 20) | BHS total score change, Diff. of LS Means (SE) minus placebo ([1]; End Point(DB)): −2.3 (1.66) | BHS total score change from baseline, Mean (SD) [1, 10]: −10.3 (5.51) | BHS total score change from baseline, Median (Range) [1, 10]: −11.0 (−19; 0) | BHS total score, Mean (SD) [1, 10]: 6.2 (5.96) | BHS total score, Median (Range) [1, 10]: 4.0 (0; 20)

CN[C@]1(c2ccccc2Cl)CCCCC1=O [esketamine, (S)-2-(2-chlorophenyl)-2-(methylamino)cyclohexanone]
Subjects who discontinued intranasal esketamine due to increased blood pressure (subjects with TRD [2]): Six | AUC (AUClast and AUC∞) variability, range [3]: 25.0% to 30.4 | Cmax variability (percent coefficient of variation), range across treatment groups [3]: 35.7% to 36.7 | QC sample freeze/thaw stability ([4]; freeze (−20° C.)/thaw (room temperature)): 3 freeze (−20° C.)/thaw (room temperature) cycles | QC sample bench-top stability ([4]; human plasma, room temperature): 18 hours at room temperature | Time to resolution of dissociative and perceptual change symptoms (CADSS) (subjects with TRD [5]): ≤ 1.5 hours postdose | MADRS Suicide Item (Suicidal Thoughts), Change from Baseline, Med ([6]; Day 1(DB): 4H LOCF): −3.0 | MADRS Suicide Item (Suicidal Thoughts), Change from Baseline, Med ([6]; Day 1(DB): 4H): −3.0 | MADRS Suicide Item (Suicidal Thoughts), Change from Baseline, Med ([6]; Day 2(DB) LOCF): −3.0 | MADRS Suicide Item (Suicidal Thoughts), Change from Baseline, Med ([6]; Day 2(DB)): −3.0 | MADRS Suicide Item (Suicidal Thoughts), Change from Baseline, Med ([6]; Day 3(DB) LOCF): −4.0 | MADRS Suicide Item (Suicidal Thoughts), Change from Baseline, Med ([6]; Day 3(DB)): −4.0 | MADRS Suicide Item (Suicidal Thoughts), Change from Baseline, Med ([6]; Day 4(DB) LOCF): −4.0 | MADRS Suicide Item (Suicidal Thoughts), Change from Baseline, Med ([6]; Day 4(DB)): −4.0 | MADRS Suicide Item (Suicidal Thoughts), Change from Baseline, Med ([6]; Day 5(DB) LOCF): −4.0 | MADRS Suicide Item (Suicidal Thoughts), Change from Baseline, Med ([6]; Day 5(DB)): −4.0 | MADRS Suicide Item (Suicidal Thoughts), Change from Baseline, Med ([6]; Day 8(DB) LOCF): −4.0 | MADRS Suicide Item (Suicidal Thoughts), Change from Baseline, Med ([6]; Day 8(DB)): −4.0 | MADRS Suicide Item (Suicidal Thoughts), Change from Baseline, Med ([6]; Day 11(DB) LOCF): −4.0 | MADRS Suicide Item (Suicidal Thoughts), Change from Baseline, Med ([6]; Day 11(DB)): −4.0 | MADRS Suicide Item (Suicidal Thoughts), Change from Baseline, Med ([6]; Day 15(DB) LOCF): −4.0 | MADRS Suicide Item (Suicidal Thoughts), Change from Baseline, Med ([6]; Day 15(DB)): −4.0 | MADRS Suicide Item (Suicidal Thoughts), Change from Baseline, Med ([6]; Day 18(DB) LOCF): −4.0 | MADRS Suicide Item (Suicidal Thoughts), Change from Baseline, Med ([6]; Day 18(DB)): −4.0 | MADRS Suicide Item (Suicidal Thoughts), Change from Baseline, Med ([6]; Day 22(DB) LOCF): −4.0 | MADRS Suicide Item (Suicidal Thoughts), Change from Baseline, Med ([6]; Day 22(DB)): −4.0 | MADRS Suicide Item (Suicidal Thoughts), Change from Baseline, Med ([6]; Day 25(DB): 4H): −4.5 | MADRS Suicide Item (Suicidal Thoughts), Change from Baseline, Med ([6]; Day 25(DB): Predose LOCF): −4.0 | MADRS Suicide Item (Suicidal Thoughts), Change from Baseline, Med ([6]; Day 25(DB): Predose): −4.5 | MADRS Suicide Item (Suicidal Thoughts), Change from Baseline, Med ([6]; Day 32(FU) LOCF): −4.0 | MADRS Suicide Item (Suicidal Thoughts), Change from Baseline, Med ([6]; Day 32(FU)): −4.0 | MADRS Suicide Item (Suicidal Thoughts), Change from Baseline, Med ([6]; Day 39(FU) LOCF): −5.0 | MADRS Suicide Item (Suicidal Thoughts), Change from Baseline, Med ([6]; Day 39(FU)): −5.0 | MADRS Suicide Item (Suicidal Thoughts), Change from Baseline, Med ([6]; Day 46(FU) LOCF): −4.0 | MADRS Suicide Item (Suicidal Thoughts), Change from Baseline, Med ([6]; Day 46(FU)): −4.0 | MADRS Suicide Item (Suicidal Thoughts), Change from Baseline, Med ([6]; Day 53(FU) LOCF): −4.0 | MADRS Suicide Item (Suicidal Thoughts), Change from Baseline, Med ([6]; Day 53(FU)): −5.0 | MADRS Suicide Item (Suicidal Thoughts), Change from Baseline, Med ([6]; Day 67(FU) LOCF): −4.0 | MADRS Suicide Item (Suicidal Thoughts), Change from Baseline, Med ([6]; Day 67(FU)): −4.0 | MADRS Suicide Item (Suicidal Thoughts), Change from Baseline, Med ([6]; Day 81(FU)): −5.0 | MADRS Suicide Item (Suicidal Thoughts), Change from Baseline, Med ([6]; End Point(DB)): −4.0 | MADRS Suicide Item (Suicidal Thoughts), Change from Baseline, Med ([6]; End Point(FU)): −5.0 | Diastolic blood pressure, maximum mean change ([7]; dosing days): 10.3 mmHg | Heart rate, maximum mean change ([7]; dosing days): 9.4 bpm | Systolic blood pressure, maximum mean change ([7]; dosing days): 19.0 mmHg | Time of return of elevated blood pressure to the normal range ([7]; human, in vivo, other: intranasal): ≤ 2 hours post-dose | Maximum diastolic blood pressure value [7, 11]: 115 mmHg | Maximum systolic blood pressure value [7, 11]: 199 mmHg | AUC ([8]; 28 mg): 128 to 183 ng·h/mL | AUC ([8]; 56 mg): 216 to 317 ng·h/mL | AUC ([8]; 84 mg): 310 to 489 ng·h/mL
